Data reported in patent publication US20240374879A1, “METHODS AND COMPOSITIONS TO REDUCE CELLULAR DEPOSITION, AND HYDROCEPHALUS SHUNT FAILURE” (Wayne State University, priority 2021, published 2024).

Tested on: Human astrocyte cells
Experiment: Multiplex ELISA of cytokine concentrations in astrocyte culture media
Format: cell-based
Settings: for % Change of Cytokine Concentration IL-1α, GIT 27 vs DMSO treated vehicle / % Change of Cytokine Concentration IL-1β, GIT 27 vs DMSO treated vehicle / % Change of Cytokine Concentration IL-6, GIT 27 vs DMSO treated vehicle / % Change of Cytokine Concentration IL-8, GIT 27 vs DMSO treated vehicle / % Change of Cytokine Concentration IL-10, GIT 27 vs DMSO treated vehicle / % Change of Cytokine Concentration TNF-α, GIT 27 vs DMSO treated vehicle: GIT 27 1000 μg/mL
Description: Media Creation: A media stock solution was created by combining astrocyte media (ScienCell), supplement kit, 10 mL fetal bovine serum (FBS), 5 mL penicillin/streptomycin, and 5 mL astrocyte growth serum (ScienCell), and an additional 10 mL FBS (ScienCell). IL-1β and IL-10 were diluted to a concentration of 50,000 ng/mL and 100,000 ng/mL, respectively, in phosphate buffer solution (PBS, w/v). GIT 27 was dissolved in a dimethyl sulfoxide (DMSO) vehicle (Sigma-Aldrich) to a concentration of 20 mg/mL (w/v).
Media solutions for the different groups were made directly before each media change. Cytokines IL-1β or IL-10 were added to the media stock solution for a final concentration of 14.67 ng/mL. GIT 27 was added for a concentration of 1000 μg/mL in the media stock solution for our experimental group. […] Our vehicle group contained 50 μL/mL DMSO alone, which is proportional to the amount in the GIT 27 treated group. Concentrations were then made for evaluation of dose and time dependency (FIGS. 6A-6F).
Cell Culture: Human astrocyte cells were initially grown in T75 flasks with media changes every three days using basic astrocyte media and washed with Hanks Balanced Salt Solution without Calcium and Magnesium (Gibco). Once the flasks came to confluency, the cells were trypsinized using Trypsin-EDTA at 0.25% (Gibco) and seeded at a seeding density of 250,000 cells per well. These samples were broken up into three treatment groups: control, DMSO, and GIT 27 tested as a pre-treatment, simultaneous treatment, and post-treatment (FIGS. 6A-6F). Each group and treatment time were then either exposed to IL-1β or IL-10 separately at concentrations described for media creation.
ELISA: As previously published, the Bursky Center for Human Immunology & Immunotherapy Programs Immunomonitoring Laboratory at Washington University School of Medicine ran the multiplex assays according to the manufacturer's protocol (Khodadadei et al., bioRxiv 2021.11.04.467357, 2021. https://doi.org/10.1101/2021.11.04.467357). Samples of culture media analyzed were collected on days 1, 5, 7, 9, 12, and 14 of culture following seeding day. Each frozen supernatant media sample was rapidly thawed at 37° C. and centrifuged at 15,000 G for five minutes prior to incubating with the two-multiplex immunoassay for the following inflammatory cytokines: IL-1α, IL-1β, IL-6, TNF-α, IL-8, IL-10 (ThermoFisher Scientific), C3, and C1q (Millipore Sigma). Magnetic beads and assay buffer were added to all the wells of a 96 well-plate. Media samples and standards were then added in duplicate. The wells were thoroughly washed, and the detection antibody was then added followed by a streptavidin phycoerythrin incubation. Beads were resuspended with sheath fluid and 50 beads per region were acquired on a Luminex FLEXMAP3D system. The concentration of each analyte was then calculated by comparing the sample mean fluorescent intensity to the appropriate standard curve. Belysa v.1 software (Millipore Sigma) was used to generate a 5-parameter logistical curve fit algorithm. Protein concentration is reported as pg/mL for each analyte.
Statistical Analysis: Three conditions were tested in this experiment, treatment group, treatment time, and IL B or IL10 exposure, with a total of 16 different samples tested with an n=five of replicates. The three treatment groups tested were a control, vehicle control (DMSO), and GIT 27 (G27). Each treatment group was tested as a pre-treatment (denoted Pre-), dose simultaneous to treatment (denoted Sim-), and post-treatment (denoted Post-) as time points with respect to shunt insertion represented by exposure to either IL-1β (IL1B) or IL-10 (IL10). Utilizing the abbreviations described here we combined these to allow for an easier understand of the results presented. An example of this can be control Pre-IL1B, DMSO Pre-IL1B, and G27 Pre-IL1B which represents the three treatment groups when used as a pre-treatment to IL-1β exposure.

[1] = G27 Sim-IL1B compared to G27 Post-IL1B
[2] = G27 Sim-IL1B compared to G27 Pre-IL1B
[3] = G27 Sim-IL10 compared to both G27 Pre-IL10 and G27 Post-IL10
[4] = Post-IL10, vs control Post-IL10
[5] = Post-Treatment (C), exposed to IL-1β
[6] = Post-Treatment (C), exposed to IL-10
[7] = Pre-IL1B, vs DMSO Pre-IL1B (not vs control)
[8] = Pre-Treatment (A), exposed to IL-1β
[9] = Pre-Treatment (A), exposed to IL-10
[10] = Simultaneous Treatment (B), exposed to IL-1β
[11] = Simultaneous Treatment (B), exposed to IL-10

O=C(O)CC1CC(c2ccccc2)=NO1 (centres unmarked) [GIT 27, 4,5-Dihydro-3-phenyl-5-isoxazoleacetic acid]
IL-10 concentration by treatment time (G27 Post-IL10 compared to G27 Sim-IL10): significantly lower
TNF-α concentration by treatment time (G27 Pre-IL10 compared to G27 Sim-IL10 and G27 Post-IL10): significantly higher
IL-6 concentration by treatment time [1]: significantly lower
TNF-α concentration by treatment time [1]: significantly lower
IL-10 concentration by treatment time [2]: lower
TNF-α concentration by treatment time [2]: lower
IL-1α concentration by treatment time [3]: significantly higher
IL-1β concentration by treatment time [3]: significantly higher
IL-1α concentration compared to both control and DMSO (Post-IL1B): significantly lower
IL-10 concentration compared to both control and DMSO (Post-IL1B): significantly lower
IL-6 concentration compared to DMSO (Post-IL1B, vs DMSO Post-IL1B): significantly lower
IL-8 concentration compared to DMSO (Post-IL1B, vs DMSO Post-IL1B): significantly lower
TNF-α concentration compared to DMSO (Post-IL1B, vs DMSO Post-IL1B): significantly lower
IL-1α concentration compared to control and DMSO (Post-IL10): significantly lower
IL-6 concentration compared to control and DMSO (Post-IL10): significantly lower
IL-8 concentration compared to control and DMSO (Post-IL10): significantly lower
TNF-α concentration compared to DMSO (Post-IL10, vs DMSO Post-IL10): significantly lower
IL-10 concentration compared to control [4]: significantly lower
TNF-α concentration compared to control [4]: significantly lower
% Change of Cytokine Concentration IL-1α, GIT 27 vs DMSO treated vehicle [5]: −20.17%
% Change of Cytokine Concentration IL-1β, GIT 27 vs DMSO treated vehicle [5]: −16.52%
% Change of Cytokine Concentration IL-6, GIT 27 vs DMSO treated vehicle [5]: −28.57%
% Change of Cytokine Concentration IL-8, GIT 27 vs DMSO treated vehicle [5]: −57.49%
% Change of Cytokine Concentration IL-10, GIT 27 vs DMSO treated vehicle [5]: −33.02%
% Change of Cytokine Concentration TNF-α, GIT 27 vs DMSO treated vehicle [5]: −33.45%
% Change of Cytokine Concentration IL-1α, GIT 27 vs DMSO treated vehicle [6]: −85.58%
% Change of Cytokine Concentration IL-1β, GIT 27 vs DMSO treated vehicle [6]: 0.00%
% Change of Cytokine Concentration IL-6, GIT 27 vs DMSO treated vehicle [6]: −76.82%
% Change of Cytokine Concentration IL-8, GIT 27 vs DMSO treated vehicle [6]: −78.86%
% Change of Cytokine Concentration IL-10, GIT 27 vs DMSO treated vehicle [6]: −71.33%
% Change of Cytokine Concentration TNF-α, GIT 27 vs DMSO treated vehicle [6]: −80.45%
IL-1α concentration, difference between treatment groups (Pre-IL1B): no significant difference
IL-8 concentration, difference between treatment groups (Pre-IL1B): no significant difference
IL-10 concentration, difference between treatment groups (Pre-IL1B): no significant difference
TNF-α concentration, difference between treatment groups (Pre-IL1B): no significant difference
IL-1β concentration compared to DMSO [7]: significantly lower
IL-6 concentration compared to DMSO [7]: significantly lower
any of the cytokine concentrations, difference between treatment groups (Pre-IL10): no significant difference
% Change of Cytokine Concentration IL-1α, GIT 27 vs DMSO treated vehicle [8]: −30.49%
% Change of Cytokine Concentration IL-1β, GIT 27 vs DMSO treated vehicle [8]: −42.70%
% Change of Cytokine Concentration IL-6, GIT 27 vs DMSO treated vehicle [8]: −76.60%
% Change of Cytokine Concentration IL-8, GIT 27 vs DMSO treated vehicle [8]: −31.56%
% Change of Cytokine Concentration IL-10, GIT 27 vs DMSO treated vehicle [8]: 26908.58%
% Change of Cytokine Concentration TNF-α, GIT 27 vs DMSO treated vehicle [8]: −12.41%
% Change of Cytokine Concentration IL-1α, GIT 27 vs DMSO treated vehicle [9]: 11.34%
% Change of Cytokine Concentration IL-1β, GIT 27 vs DMSO treated vehicle [9]: 0.00%
% Change of Cytokine Concentration IL-6, GIT 27 vs DMSO treated vehicle [9]: 21.96%
% Change of Cytokine Concentration IL-8, GIT 27 vs DMSO treated vehicle [9]: −43.65%
% Change of Cytokine Concentration IL-10, GIT 27 vs DMSO treated vehicle [9]: −6.42%
% Change of Cytokine Concentration TNF-α, GIT 27 vs DMSO treated vehicle [9]: −13.92%
IL-1α concentration compared to control (Sim-IL1B, vs control Sim-IL1B): significantly lower
IL-1β concentration compared to control (Sim-IL1B, vs control Sim-IL1B): significantly lower
IL-10 concentration compared to control (Sim-IL1B, vs control Sim-IL1B): significantly lower
TNF-α concentration compared to control (Sim-IL1B, vs control Sim-IL1B): significantly lower
IL-1α concentration compared to DMSO and control (Sim-IL10): significantly decrease
IL-8 concentration compared to DMSO and control (Sim-IL10): significantly decrease
IL-10 concentration compared to both DMSO and control (Sim-IL10): significantly lower
TNF-α concentration compared to control (Sim-IL10): significantly lowered
% Change of Cytokine Concentration IL-1α, GIT 27 vs DMSO treated vehicle [10]: −40.83%
% Change of Cytokine Concentration IL-1β, GIT 27 vs DMSO treated vehicle [10]: −8.24%
% Change of Cytokine Concentration IL-6, GIT 27 vs DMSO treated vehicle [10]: 31.97%
% Change of Cytokine Concentration IL-8, GIT 27 vs DMSO treated vehicle [10]: −34.82%
% Change of Cytokine Concentration IL-10, GIT 27 vs DMSO treated vehicle [10]: −31.11%
% Change of Cytokine Concentration TNF-α, GIT 27 vs DMSO treated vehicle [10]: −8.65%
% Change of Cytokine Concentration IL-1α, GIT 27 vs DMSO treated vehicle [11]: −66.52%
% Change of Cytokine Concentration IL-1β, GIT 27 vs DMSO treated vehicle [11]: −89.31%
% Change of Cytokine Concentration IL-6, GIT 27 vs DMSO treated vehicle [11]: −28.89%
% Change of Cytokine Concentration IL-8, GIT 27 vs DMSO treated vehicle [11]: −81.04%
% Change of Cytokine Concentration IL-10, GIT 27 vs DMSO treated vehicle [11]: −49.58%
% Change of Cytokine Concentration TNF-α, GIT 27 vs DMSO treated vehicle [11]: −53.95%
IFN-γ concentration (any of the treatment groups): no detectable concentration
